The subject of one assay is HIV-1NL4-3. In words: P4-MAGI assay. The format is cell-based. In outline: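 Cytotoxicity (TC50, 50% growth inhibition) came from WST-1 in uninfected cells. For antiviral activity, compound at rising concentrations was added immediately after HIV-1NL4-3 inoculation (MOI 1, DEAE-Dextran) of P4 cells, CD4+ HeLa cells expressing β-galactosidase from a minimal HIV-1 LTR upon infection.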

Assay [1] deals with HIV-1 laboratory strain, NL4-3. In words: MT-4 cytoprotection assay. The format is cell-based. As to the method: The HTLV-1 transformed T cell line, MT-4, is highly susceptible to HIV-1 infection. Anti-HIV-1 agents were evaluated in this target cell line by protection from the HIV-induced cytopathic effect. In this assay, viability of both HIV-1 and mock-infected cells was assessed in a […] assay that monitors the ability of metabolically-active cells to reduce the tetrazolium salt WST-1. Cytoprotection by antiviral compounds is indicated by the positive readout of increased WST-1 cleavage.
Briefly, exponentially growing MT-4 cells were mock-infected or batch-infected with the HIV-1 laboratory strain, NL4-3, at a multiplicity of infection of 0.0005. Following a two hour infection, the cells were washed to remove unbound virus and plated in the presence of increasing concentrations of compound. After four days incubation, cytoprotection in the infected cells and compound toxicity in mock-infected cells were analyzed using the WST-1 assay.

Setting [2] is: Human immunodeficiency virus 1, 24 h, P4 cells, 24 hour incubation, β-galactosidase expression, read-out: P4-MAGI IC50.
Setting [3] is: Human immunodeficiency virus 1, text statement, less than about 100 nm, read-out: P4-MAGI assay IC50.
The mark [4] stands for this setting: Human immunodeficiency virus 1, NL43, MT4, 96 h, MT-4 cells, four days incubation, WST-1 readout, read-out: MT4 EC50.
[5] abbreviates: Human immunodeficiency virus 1, NL43, less than about 100 nm, read-out: MT-4 assay EC50 (concentration of compound that reduces the virus induced cytopathic effect by 50%).

Where two headings read alike, the source gives them in different places.

The IC50 is the point on the concentration scale where inhibition reaches its midpoint.

With `C=C(C)[C@@H]1CC[C@]2(C(=O)NCc3cccc(C(=O)NCc4ccc(C(=O)O)c(F)c4)c3)CC[C@]3(C)C(CCC4[C@@]5(C)CC[C@H](O)C(C)(C)C5CC[C@]43C)C12` (some centres unmarked) [Example 34], the IC50 was 24.3 nM with HIV-1NL4-3 (setting [2]) and < 100 nM in the assay on HIV-1NL4-3 (setting [3]). For the same compound, the EC50 in assay [1] (setting [4]) was 19 nM; in assay [1] (setting [5]), < 100 nM.

For the compound `C=C(C)[C@@H]1CC[C@]2(C(=O)NCc3cccc(C(=O)NCc4ccc(C(=O)O)s4)c3)CC[C@]3(C)C(CCC4[C@@]5(C)CC[C@H](O)C(C)(C)C5CC[C@]43C)C12` (some centres unmarked) [Example 35], the IC50 with HIV-1NL4-3 (setting [2]) is 53.2 nM; in the assay on HIV-1NL4-3 (setting [3]), < 100 nM. For the same compound, the figures for the EC50 in assay [1] (setting [4]) and in assay [1] (setting [5]) were 85 nM and < 100 nM, respectively.

As for `C=C(C)[C@@H]1CC[C@]2(C(=O)NCc3cccc(C(=O)NCCc4cccc(C(=O)O)c4F)c3)CC[C@]3(C)C(CCC4[C@@]5(C)CC[C@H](O)C(C)(C)C5CC[C@]43C)C12` (some centres unmarked) [Example 36], the IC50 in the assay with HIV-1NL4-3 (setting [2]) was 16.4 nM; in the assay on HIV-1NL4-3 (setting [3]), < 100 nM. The results for the EC50 in assay [1] (setting [4]) and in assay [1] (setting [5]) were 8.5 nM and < 100 nM, respectively.

Regarding `C=C(C)[C@@H]1CC[C@]2(C(=O)NCc3cccc(C(=O)NCC(F)(F)c4ccc(C(=O)O)cc4)c3)CC[C@]3(C)C(CCC4[C@@]5(C)CC[C@H](O)C(C)(C)C5CC[C@]43C)C12` (some centres unmarked) [Example 37], the values for the IC50 with HIV-1NL4-3 (setting [2]) and in the assay on HIV-1NL4-3 (setting [3]) were 56.7 nM and < 100 nM, respectively. For the same compound, the figures for the EC50 in assay [1] (setting [4]) and in assay [1] (setting [5]) were 7.3 nM and < 100 nM, respectively.

`C=C(C)[C@@H]1CC[C@]2(C(=O)NCc3cccc(C(=O)NCC(C)(C)c4cccc(C(=O)O)c4)c3)CC[C@]3(C)C(CCC4[C@@]5(C)CC[C@H](O)C(C)(C)C5CC[C@]43C)C12` (some centres unmarked) [Example 39]: the IC50 was 40.2 nM in the assay with HIV-1NL4-3 (setting [2]) and < 100 nM in the assay with HIV-1NL4-3 (setting [3]). Also, the EC50 is 5.3 nM in assay [1] (setting [4]) and < 100 nM in assay [1] (setting [5]).

Regarding `C=C(C)[C@@H]1CC[C@]2(C(=O)NCc3cccc(C(=O)NCCc4ccc(C(=O)O)c(F)c4)c3)CC[C@]3(C)C(CCC4[C@@]5(C)CC[C@H](O)C(C)(C)C5CC[C@]43C)C12` (some centres unmarked) [Example 40], the IC50 was 19.9 nM in the assay on HIV-1NL4-3 (setting [2]) and < 100 nM with HIV-1NL4-3 (setting [3]). For the same compound, the EC50 in assay [1] (setting [4]) is 6.3 nM; in assay [1] (setting [5]), < 100 nM.

For the compound `C=C(C)[C@@H]1CC[C@]2(C(=O)NCc3cccc(C(=O)NCc4cccc(C(=O)O)c4F)c3)CC[C@]3(C)C(CCC4[C@@]5(C)CC[C@H](O)C(C)(C)C5CC[C@]43C)C12` (some centres unmarked) [Example 41], the results for the IC50 in the assay with HIV-1NL4-3 (setting [2]) and in the assay on HIV-1NL4-3 (setting [3]) were 36.7 nM and < 100 nM, respectively. The EC50 in assay [1] (setting [4]) was 1.9 nM; in assay [1] (setting [5]), < 100 nM.

With `C=C(C)[C@@H]1CC[C@]2(C(=O)NCc3cccc(C(=O)NCc4cccc(C(=O)OC)c4F)c3)CC[C@]3(C)C(CCC4[C@@]5(C)CC[C@H](O)C(C)(C)C5CC[C@]43C)C12` (some centres unmarked) [Example 42], the IC50 in the assay with HIV-1NL4-3 (setting [2]) is 58.3 nM; in the assay with HIV-1NL4-3 (setting [3]) it was < 100 nM. For the same compound, the EC50 in assay [1] (setting [4]) is 42 nM; in assay [1] (setting [5]) it was < 100 nM.

With `C=C(C)[C@@H]1CC[C@]2(C(=O)NCc3cccc(C(=O)NCCc4ccc(C(=O)O)cc4F)c3)CC[C@]3(C)C(CCC4[C@@]5(C)CC[C@H](O)C(C)(C)C5CC[C@]43C)C12` (some centres unmarked) [Example 43], the IC50 with HIV-1NL4-3 (setting [2]) is 16.8 nM; with HIV-1NL4-3 (setting [3]), < 100 nM. For the same compound, the EC50 in assay [1] (setting [4]) was 9.3 nM; in assay [1] (setting [5]), < 100 nM.

For `C=C(C)[C@@H]1CC[C@]2(C(=O)NCc3cccc(C(=O)NCCc4ccc(S(N)(=O)=O)cc4)c3)CC[C@]3(C)C(CCC4[C@@]5(C)CC[C@H](O)C(C)(C)C5CC[C@]43C)C12` (some centres unmarked) [Example 45], the IC50 was 15.9 nM in the assay on HIV-1NL4-3 (setting [2]) and < 100 nM in the assay with HIV-1NL4-3 (setting [3]). The EC50 in assay [1] (setting [4]) is 94 nM; in assay [1] (setting [5]), < 100 nM.

As to `C=C(C)[C@@H]1CC[C@]2(C(=O)NCc3cccc(C(=O)NCc4ccc(N(C)C)cc4)c3)CC[C@]3(C)C(CCC4[C@@]5(C)CC[C@H](O)C(C)(C)C5CC[C@]43C)C12` (some centres unmarked) [Example 47], the IC50 in the assay on HIV-1NL4-3 (setting [2]) was 36.3 nM; in the assay on HIV-1NL4-3 (setting [3]) it was < 100 nM. Also, the EC50 was 41.3 nM in assay [1] (setting [4]) and < 100 nM in assay [1] (setting [5]).

The values above are taken from patent US20090275583A1, “ANTIVIRAL COMPOUNDS AND USE THEREOF” (Myriad Genetics, Incorporated, priority 2006, published 2009).
